Results from patent EP0345955B1, “Anti-microbial composition and use thereof” (IMPERIAL CHEMICAL INDUSTRIES PLC, priority 1988, dated 1989).

Test system: mixed fungal spore suspension of Alternaria alternata, Aureobasidium pullulans, Cladosporium herbarum, Phoma violacea, and Stemphylium dendriticum
Assay: Evaluation as a paint film fungicide (acrylic emulsion paint on wooden test pieces, spray inoculated)
Assay type: cell-based
Conditions: 25°C, four weeks, two scores per cell; for Fungal Growth L2: L2 (leached for two days); for Fungal Growth UL: UL (test pieces not leached); for Fungal Growth L1: L1 (leached with water spray for one day)
Protocol: In the following examples, the compositions obtained were subjected to microbiological evaluation as paint film fungicides. The compositions were also tested for anti-algal properties. The microbiological testing was effected as follows: The products were tested for activity against fungi which were one or more of Alternaria alternata, Aureobasidum pullulans, Cladosporium herbarum, Phoma violacea and Stemphylium dendriticum.
The compositions to be tested were obtained as described in Examples 1 to 6 and the Comparative Examples. The compositions were added as a solid blend to samples of an exterior acrylic emulsion paint (based on Revacryl 1A latex at pH 9) in glass bottles and mixed to give final active ingredient levels in the paint of 1.0, 0.5 and 0.25% w/v.
The bottles containing paint plus biocide composition were sealed and stored at 40°C for three days.
Small wooden test pieces were prepared for each paint composition by priming and then brushing on two full even coats.
One set of the coated test pieces was stored at ambient temperature in the dark. A further set of coated test pieces was placed in a leaching device in which the test pieces were sprayed with water for one day and the test pieces were removed from the leaching device and dried. Yet a further set of coated test pieces was subjected to leaching for two days.
The coated test pieces were then transferred to a high humidity chamber. Each test piece was then spray inoculated with a mixed fungal spore suspension of Alternaria alternata, Aureobasidium pullulans, Cladosporium herbarum, Phoma violacea, and Stemphylium dendriticum.
Incubation was carried out at 25°C for four weeks. After this period the paint films were examined for fungal growth by naked eye and by stereo optical microscope.
The compositions of Examples 1 to 6 and the Comparative Examples were evaluated as paint film fungicides using the technique described previously herein. For comparative purposes paints containing only tetrachloroisophthalonitrile (NC); 3-(3,4-dichlorophenyl)-1,1-dimethylurea (DU); 2,3,5,6-thetrachloro-4-(methylsulphonyl) pyridine (DS); di-iodomethyl-4-methylphenylsulphone (AM); or zinc oxide (ZO) were also evaluated under the same conditions.

[1] = 0.25% w/v active ingredient in paint
[2] = 0.5% w/v active ingredient in paint
[3] = 1.0% w/v active ingredient in paint

SMILES	Fungal Growth L2 [1]	Fungal Growth UL [1]	Fungal Growth L2 [2]	Fungal Growth UL [2]	Fungal Growth L2 [3]	Fungal Growth UL [3]	Fungal Growth L1 [1]	Fungal Growth L1 [2]	Fungal Growth L1 [3]
Cc1ccc(S(=O)(=O)C(I)I)cc1 [AM, di-iodomethyl-4-methylphenylsulphone]	4,4	0,0	1,2	0,0	0,0	0,0	–	–	–
CS(=O)(=O)c1c(Cl)c(Cl)nc(Cl)c1Cl [DS, 2,3,5,6-tetrachloro-4-(methylsulphonyl)pyridine]	5,4	2,2	2,3	1,1	1,0	0.1	–	–	–
CN(C)C(=O)Nc1ccc(Cl)c(Cl)c1 [DU, 3-(3,4-dichlorophenyl)-1,1-dimethylurea]	–	–	–	–	5,5	5,5	–	–	–
N#Cc1c(Cl)c(Cl)c(Cl)c(C#N)c1Cl [NC, tetrachloroisophthalonitrile]	5,5	3,4	3,5	2,3	4,5	0,0	4,4	4,5	2,5
